Results reported in patent US20110117026A1, “METHODS AND COMPOSITIONS FOR THE DELIVERY OF BIOACTIVE COMPOUNDS” (priority 2008, published 2011).
Non-standard residues stand in square brackets, D forms with d. Residues, ends and D or L forms follow the SMILES beside them. No end group written: not given here. pY = N[C@@H](Cc1ccc(OP(=O)(O)O)cc1)C(=O)O

Columns and labels:
recombinant caspase 3 = molecular target: T1, recombinant caspase 3 (Homo sapiens, UniProt P42574); assay: Cleavage of imaging peptide by caspase 3 (Cy5.5/Cy7 FRET, nanofluorometer); type: biochemical
T1 sequence (P42574 29-175 limits assumed): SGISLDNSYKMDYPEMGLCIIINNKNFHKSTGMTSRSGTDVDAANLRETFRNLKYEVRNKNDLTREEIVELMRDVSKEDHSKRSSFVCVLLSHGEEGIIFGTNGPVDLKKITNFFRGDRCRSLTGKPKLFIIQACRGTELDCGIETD
T1 sequence (P42574 176-277 limits assumed): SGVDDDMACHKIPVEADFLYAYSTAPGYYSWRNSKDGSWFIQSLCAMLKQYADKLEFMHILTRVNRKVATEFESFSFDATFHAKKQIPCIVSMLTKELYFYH
Description: The fluorescence emission profiles of untreated peptide (FIG. 27A), peptide treated with 60 units of caspase-3 for 2 hours (FIG. 27B), peptide treated with 0.1 mg BSA (FIG. 27C), and peptide treated with 60 units caspase-3 that was pre-incubated with 10 μM caspase-3 inhibitor for one hour (FIG. 27D) were measured with a nanofluorometer.
The fluorescence spectrum of the peptide was recorded with a nanofluorometer which only requires a 2 μL sample volume.

[1] = molecular target: T2, STAT5b phosphorylation by EGFR (Homo sapiens, UniProt P51692); assay: Cell-free inhibition of STAT5b phosphorylation in H460 cell lysate (Western blot); type: biochemical
T2 construct: In a cell-free system containing the lysate of H460 cells treated with EGF; endogenous in cells; host or cells: H460 cell lysate (cells treated with EGF)
T2 sequence (P51692 1-787): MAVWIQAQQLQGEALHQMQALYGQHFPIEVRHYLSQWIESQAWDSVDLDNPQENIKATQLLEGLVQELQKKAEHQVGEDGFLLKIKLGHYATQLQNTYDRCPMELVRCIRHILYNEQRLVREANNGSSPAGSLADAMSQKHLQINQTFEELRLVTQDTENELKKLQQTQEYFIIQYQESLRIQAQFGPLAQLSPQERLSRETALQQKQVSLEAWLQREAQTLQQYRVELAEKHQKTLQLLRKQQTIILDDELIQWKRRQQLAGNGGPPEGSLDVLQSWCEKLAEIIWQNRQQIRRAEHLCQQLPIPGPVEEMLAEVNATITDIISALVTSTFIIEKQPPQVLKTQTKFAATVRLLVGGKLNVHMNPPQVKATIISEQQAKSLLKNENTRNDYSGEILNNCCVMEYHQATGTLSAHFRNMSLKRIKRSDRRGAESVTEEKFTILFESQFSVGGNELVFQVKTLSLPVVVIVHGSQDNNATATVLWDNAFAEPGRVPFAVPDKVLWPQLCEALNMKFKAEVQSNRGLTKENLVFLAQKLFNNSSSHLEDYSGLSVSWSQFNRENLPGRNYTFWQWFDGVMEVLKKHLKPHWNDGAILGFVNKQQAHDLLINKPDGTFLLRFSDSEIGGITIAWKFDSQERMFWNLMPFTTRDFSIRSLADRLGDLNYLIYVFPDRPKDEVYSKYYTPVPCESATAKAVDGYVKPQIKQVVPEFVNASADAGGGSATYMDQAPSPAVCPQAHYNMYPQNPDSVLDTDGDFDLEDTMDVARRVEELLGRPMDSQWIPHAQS
Description: FIGS. 20A and 20B show the inhibition of STAT5b phosphorylation by the EV peptide (SEQ ID NO: 3) in a tumor cell lysate. Increasing amounts of EV peptide was added to the assay mixture containing H460 cell lysate. The degree of STAT5b phosphorylation was detected by Western blot (FIG. 20A) using a phosphorylated STAT5b specific monoclonal antibody. The data was analyzed by Image J software to obtain the IC50 (FIG. 20B).
Studies were initiated by selecting a highly anionic peptide that can block an important intracellular signaling event. The phosphorylation and activation of the signal transducer and activator of transcription 5b (STAT5b) by the epidermal growth factor receptor (EGFR) tyrosine kinase was chosen as the targeted signaling event. STAT proteins are cytoplasmic proteins that function as secondary messengers and transcription factors. The STAT proteins have a phosphotyrosine binding domain of src-homology 2 (SH2). The potential of the SH2 domain to interact with a number of signaling proteins allow the STATs to interfere with multiple cell signaling pathways (Mohamad and Mohammad (2006) JK-Practitioner 13(4):215-221). STAT activation has been implicated in human cancer cells, including the activation of upstream receptor tyrosine kinases, such as the EGFR, as well as nonreceptor kinases. […]

H460 cells [2] = assay: Uptake of Alexa488 EV peptide by H460 cells; type: cell-based, human; details: Alexa488-labeled EV peptide, 4 h
Description: After treating H460 cells for four hours with an Alexa488 conjugated EV peptide formulated in LPH, PEG-LPH, or PEG-AA-LPH, cells were washed, treated with Triton X-100, and the fluorescence of the cell extract was determined with a fluorometer.
The uptake of the peptide by H460 cells was first studied in vitro. The EV peptide was fluorescently labeled with Alexa488 at the N-terminal α-NH2 group, purified by gel filtration, and formulated in the nanoparticles. […] Free EV peptide was not taken up by H460 cells at all.

H460 cells [3] = assay: Inhibition of H460 cell growth; type: cell-based, human; details: EV peptide 5 μM
Description: H460 cells were treated with the EV peptide (5 μM) formulated in LPH-PEG-AA, LPH-PEG, or as a free peptide.
(§1) The effect of the delivered EV peptide on the growth of H460 cells was then investigated.

H460 cells [4] = assay: Apoptosis of H460 cells by flow cytometry (annexin V, propidium iodide); type: cell-based, human; details: 48 hours after treatment
Description: Cells were stained with propidium iodide (PI) and Annexin V-FITC at 48 hours after treatment with a PEGylated LPH with AA or without AA.
as §1

STAT5b = molecular target: T3, STAT5b (Homo sapiens, UniProt P51692); assay: STAT5b phosphorylation in intact H460 cells (ELISA); type: cell-based; details: 3.4 μM peptide, 24 h
T3 construct: endogenous in cells; host or cells: H460 cells
T3 sequence (P51692 1-787): T2 sequence (P51692 1-787)
Description: FIG. 22 provides a graph depicting the inhibition of STAT5b phosphorylation by the EV peptide. At 24 hours after treating H460 cells with LPH, LPH-PEG or LPH-PEG-AA comprising the EV (SEQ ID NO: 3) or EE (SEQ ID NO: 4) peptide or the free peptide at 3.4 μM, the reduction of phosphorylated Stat5b was assayed with an ELISA.
Next, the pharmacodynamics of the EV peptide was studied in vitro.

Ac-KDEVDCDEVDKDEVDC (also: Cy5.5 on Cys, Cy7 on Lys) [imaging peptide, caspase 3 FRET reporter]
ratio of Cy5.5/Cy7 (recombinant caspase 3; after incubation with recombinant caspase 3 (60 units, 2 hours)): 2.70
ratio of Cy5.5/Cy7 (recombinant caspase 3; intact (untreated) peptide): 1.74

CC(C)C[C@H](NC(=O)[C@H](CCC(=O)O)NC(=O)[C@H](Cc1ccccc1)NC(=O)[C@H](Cc1ccc(OP(=O)(O)O)cc1)NC(=O)[C@H](CCC(=O)O)NC(=O)[C@H](CCC(=O)O)NC(=O)[C@H](CCC(=O)O)NC(=O)[C@@H](N)CCC(=O)O)C(=O)N[C@H](C(=O)O)C(C)C [EV peptide, EEEE(pY)FELV] (H-EEEE[pY]FELV-OH; C-terminus assumed)
IC50 [1]: 2500 nM
uptake by H460 cells (H460 cells [2]): not taken up
effect on growth of H460 cells (H460 cells [3]): no effect
apoptosis, in words (H460 cells [4]): without any effect

E(pY)ELFEEVE (E[pY]ELFEEVE) [EE peptide, reference compound]
effect on STAT5b phosphorylation, in words (STAT5b): did not show any significant effect
